Assay results published in ChEMBL document CHEMBL3832761, “MMV Pathogen Box Bioactivity Data” (2017).

Assays:
[1] = system: HepG2; test: Cytotoxicity data HepG2 CC20 (uM); type: functional
[2] = system: Plasmodium berghei; test: Antimalarial activity: Liver Stage Plasmodium berghei sporozoite Luciferase assay IC50 (uM); type: functional, organism-based
[3] = system: Plasmodium falciparum; test: Antimalarial activity: Asexual Blood Stage Plasmodium falciparum 3D7 IC50 (uM); type: functional, organism-based
[4] = system: HepG2; test: HepG2 CC50 (uM) Cytotoxicity; type: functional; details: Homo sapiens
[5] = system: Plasmodium falciparum; test: Antimalarial activity: Asexual Blood Stage Plasmodium falciparum Dd2 IC50 (uM); type: functional, organism-based
[6] = system: Plasmodium falciparum; test: Antimalarial activity: Asexual Blood Stage Plasmodium falciparum W2 IC50 (uM); type: functional, organism-based
[7] = system: Plasmodium falciparum; test: Antimalarial activity: Gametocytes Plasmodium falciparum NF54 Gametocytes Stage V: inhibition at 10 uM (%); type: functional
[8] = system: Plasmodium berghei; test: Antimalarial activity: Liver Stage Plasmodium berghei sporozoite Luciferase assay: inhibition at 10 uM (%); type: functional

SMILES	IC50 [2] [µM]	IC50 [3] [µM]	IC50 [5] [µM]	IC50 [6] [µM]	CC20 [1] [µM]	CC50 [4] [µM]	Inhibition [7] [%]	Inhibition [8] [%]
Cc1cccc(C(=O)Nc2ccnc(N(C)C3CCN(CC(C)C)CC3)c2)c1	> 10	2.1	5.18	9.25	13.7	> 10	10	66
Cc1ccc(S(=O)(=O)N2CCN(C(=O)c3cc(-c4ccccc4)n[nH]3)CC2)cc1	0.63	1.04	1.73	0.4	>80	> 10	17	92
FC(F)(F)c1cccc(-c2nc3c(NCc4ccncc4)nccc3[nH]2)c1	> 10	0.51	0.78	1.04	14.6	> 10	11	62
CNC(=O)C1Cc2c([nH]c3cc(Cl)ccc23)C2(CCN(CCc3ccccc3)CC2)N1 (stereo not drawn)	4.51	0.86	1.95	4.55	10	> 10	33	99
CC(C)C(NC(=O)Cc1cccc2ccccc12)C(=O)Nc1cccc(C#N)c1 (stereo not drawn)	9.15	0.96	3.1	1.14	14	> 10	5	76
CN1CCN(c2nccc3nc(-c4ccc(F)c(F)c4)[nH]c23)CC1	> 10	1.13	1.71	2.11	10.3	> 10	32	56
Cc1nc(-c2cccc(NCc3ccccc3)c2)[nH]c1C	4.59	1.94	5.03	2.59	27.7	> 10	16	100
Cc1cccc(NC(=O)c2cc(S(=O)(=O)N(C)c3ccc(F)cc3)ccc2Cl)n1	6.77	1.58	> 2	1.07	26.4	> 10	3	86
Cc1cc(C)n2nc(C(=O)Nc3cc(C(F)(F)F)ccc3N3CCOCC3)nc2n1	1.21	0.22	0.22	0.07	>80	> 10	4	88
Nc1ccc(C(=O)Nc2ccc(-c3nc4ccccc4o3)cc2)cc1	> 10	1.55	> 2	–	18.2	> 10	0	89
C[C@]1(O)C[C@@H](c2nc(-c3ccc4ccc(-c5ccccc5)nc4c3)c3c(N)nccn32)C1 [LINSITINIB]	0.36	> 2	> 2	–	4.67	> 10	16	98
O=C(Nc1cccc(Cl)c1)c1cnc(N2CCN(c3ccncc3)CC2)c(Cl)c1	2.35	0.83	1.33	1.55	2.68	> 10	51	99
O=C(Nc1ccc(N2CCNCC2)nc1)c1oc(-c2ccccc2)nc1C(F)(F)F	2.55	1.22	1.64	3	13.4	> 10	44	78
COc1ccc(CN2CCOc3ccc(C(C)(O)CN(C)C)cc3C2)cc1C (stereo not drawn)	0.93	> 2	1.47	–	17.4	> 10	7	64

More lines, main results first:

IC50 [2] [µM]	IC50 [3] [µM]	IC50 [5] [µM]	IC50 [6] [µM]	SMILES	CC20 [1] [µM]	CC50 [4] [µM]	Inhibition [7] [%]	Inhibition [8] [%]
8.57	0.81	2.02	2.86	Cc1c[nH]c(CCNC(=O)c2cc(-c3ccc(Cl)cc3)cs2)n1	6.9	> 10	15	85
9.1	0.48	0.6	0.64	Cc1ccc(Oc2ccc(NC(=O)CNc3ccccc3N3CCCC3=O)cc2)cc1	17.5	9.8	0	89
> 10	0.66	1.8	1.97	CCOc1ccc(-c2nc(NC(=O)CS(=O)(=O)c3ccccc3)sc2C)cc1	20	> 10	17	59
> 10	1.63	1.53	1.36	Clc1cccc(C(c2ccc(CN3CCNCC3)cc2)n2ccnc2)c1 (stereo not drawn)	15.2	> 10	36	83
> 7.5	0.1	0.15	0.18	COc1cncc(-c2cncc(N3CCN(c4ccncc4)CC3)n2)c1	4.65	> 10	12	64
> 10	1.28	2.49	2.53	COc1cccc(-c2cc3c(Nc4cccnc4)nccc3[nH]2)c1	2.29	> 10	6	77
1.47	1.08	1.63	0.69	OCCc1ccc(Nc2nccc(-c3nnc4ccccn34)n2)cc1	1.67	8.1	11	99
2.25	0.58	0.92	0.31	CC1CC1C(=O)NC1CCN(CC2(c3ccccc3)CCCCC2)CC1 (stereo not drawn)	>80	> 10	24	100
> 10	0.42	0.61	0.79	CCOc1ccccc1NC(C)C(=O)Nc1cc(C(F)(F)F)ccc1N1CCOCC1 (stereo not drawn)	29.8	> 10	39	56
1.39	1.88	> 2	–	Cc1cc(C(=O)Nc2cnn(Cc3ccc(Cl)cc3Cl)c2)no1	30.6	> 10	11	98
2.17	0.6	0.63	0.73	NS(=O)(=O)c1cncc(-c2ccc3nccc(-c4cn[nH]c4)c3n2)c1	0.49	–	70	96
3.78	0.64	0.89	0.54	NCC(=O)N1CCn2c(nc(-c3ccccc3)c2Nc2ccc3c(c2)OCO3)C1	>80	> 10	56	100
